In patent US9540392B2, “Thienopyrimidines” (BAYER PHARMA AKTIENGESELLSCHAFT, priority 2012, dated 2017):

Legend:
human full-length MKNK1 [1] = molecular target: T1, human full-length MKNK1 (Homo sapiens, UniProt Q9BUB5, T385D); assay: MKNK1 kinase assay (TR-FRET); format: biochemical; details: 10 μM ATP
T1 construct: GST (N); purchased Carna Biosciences 02-145; host or cells: insect cells (baculovirus expression system)
Excerpt: MKNK1-inhibitory activity of compounds of the present invention was quantified employing the MKNK1 TR-FRET assay as described in the following paragraphs.
A recombinant fusion protein of Glutathione-S-Transferase (GST, N-terminally) and human full-length MKNK1 (amino acids 1-424 and T344D of accession number BAA 19885.1), expressed in insect cells using baculovirus expression system and purified via glutathione sepharose affinity chromatography, was purchased from Carna Biosciences (product no 02-145) and used as enzyme. As substrate for the kinase reaction the biotinylated peptide biotin-Ahx-IKKRKLTRRKSLKG (C-terminus in amide form) was used which can be purchased e.g. form the company Biosyntan (Berlin-Buch, Germany).
For the assay 50 nL of a 100 fold concentrated solution of the test compound in DMSO was pipetted into a black low volume 384 well microtiter plate (Greiner Bio-One, Frickenhausen, Germany), 2 μL of a solution of MKNK1 in aqueous assay buffer [50 mM HEPES pH 7.5, 5 mM MgCl2, 1.0 mM dithiothreitol, 0.005% (v/v) Nonidet-P40 (Sigma)] was added and the mixture was incubated for 15 min at 22° C. to allow pre-binding of the test compounds to the enzyme before the start of the kinase reaction. Then the kinase reaction was started by the addition of 3 μL of a solution of adenosine-tri-phosphate (ATP, 16.7 μM=>final conc. in the 5 μL assay volume is 10 μM) and substrate (0.1 μM=>final conc. in the 5 μL assay volume is 0.06 μM) in assay buffer and the resulting mixture was incubated for a reaction time of 45 min at 22° C. The concentration of MKNK1 was adjusted depending of the activity of the enzyme lot and was chosen appropriate to have the assay in the linear range, typical concentrations were in the range of 0.05 μg/mL. The reaction was stopped by the addition of 5 μL of a solution of TR-FRET detection reagents (5 nM streptavidine-XL665 [Cisbio Bioassays, Codolet, France] and 1 nM anti-ribosomal protein […] (pSer236)-antibody from Invitrogen [#44921G] and 1 nM LANCE EU-W1024 Labeled ProteinG [Perkin-Elmer, product no. AD0071]) in an aqueous EDTA-solution (100 mM EDTA, 0.1% (w/v) bovine serum albumin in 50 mM HEPES pH 7.5).
The resulting mixture was incubated for 1 h at 22° C. to allow the formation of complex between the phosphorylated biotinylated peptide and the detection reagents. Subsequently the amount of phosphorylated substrate was evaluated by measurement of the resonance energy transfer from the Eu-chelate to the streptavidine-XL. Therefore, the fluorescence emissions at 620 nm and 665 nm after excitation at 350 nm were measured in a TR-FRET reader, e.g. a Rubystar (BMG Labtechnologies, Offenburg, Germany) or a Viewlux (Perkin-Elmer). […]

human full-length MKNK1 [2] = molecular target: T1, human full-length MKNK1; assay: MKNK1 kinase high ATP assay (TR-FRET); format: biochemical; details: 2 mM ATP, after preincubation with MKNK1; read-out: MKNK1 IC50 (MKNK1 high ATP)
In short: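 Compound was preincubated 15 min at 22° C. with MKNK1 in 50 mM HEPES pH 7.5, 5 mM MgCl2, 1.0 mM DTT, then the reaction ran 30 min at 22° C. with 2 mM ATP and 0.06 μM biotinylated peptide (final).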

[3] = tested on: eIF4E Ser209 phosphorylation in A549 cells; assay: AlphaScreen SureFire eIF4E Ser209 phosphorylation assay in A549 cells with 20% FCS stimulation; format: cell-based; details: Homo sapiens, read-out: pEIF4e (IC50 of the EIF4e phosphorylation)
Excerpt: The AlphaScreen SureFire eIF4E Ser209 phoshorylation assay is used to measure the phosphorylation of endogenous eIF4E in cellular lysates. The AlphaScreen SureFire technology allows the detection of phosphorylated proteins in cellular lysates. In this assay, sandwich antibody complexes, which are only formed in the presence of the analyte (p-eIF4E Ser209), are captured by AlphaScreen donor and acceptor beads, bringing them into close proximity. The excitation of the donor bead provokes the release of singlet oxygen molecules that triggers a cascade of energy transfer in the Acceptor beads, resulting in the emission of light at 520-620 nm.
Surefire EIF4e Alphascreen in A549 cells with 20% FCS stimulation
For the assay the AlphaScreen SureFire p-eIF4E Ser209 10K Assay Kit and the AlphaScreen ProteinA Kit (for 10K assay points) both from Perkin Elmer were used. On day one 50.000 A549 cells were plated in a 96-well plate in 100 μL per well in growth medium (DMEM/Hams' F12 with stable Glutamin, 10% FCS) and incubated at 37° C. After attachment of the cells, medium was changed to starving medium (DMEM, 0.1% FCS, without Glucose, with Glutamin, supplemented with 5 g/L Maltose). On day two, test compounds were serially diluted in 50 μL starving medium with a final DMSO concentration of 1% and were added to A549 cells in test plates at a final concentration range from as high 10 μM to as low 10 nM depending on the activities of the tested compounds. Treated cells were incubated at 37° C. for 2 h. 37 ul FCS was added to the wells (=final FCS concentration 20%) for 20 min. Then medium was removed and cells were lysed by adding 50 μL lysis buffer. Plates were then agitated on a plate shaker for 10 min. After 10 min lysis time, 4 μL of the lysate is transferred to a 384 well plate (Proxiplate from Perkin Elmer) and 5 μL Reaction Buffer plus Activation Buffer mix containing AlphaScreen Acceptor beads was added. Plates were sealed with TopSeal-A adhesive film, gently agitated on a plate shaker for 2 hours at room temperature. Afterwards 2 μL Dilution buffer with AlphaScreen Donor beads were added under subdued light and plates were sealed again with TopSeal-A adhesive film and covered with foil. Incubation takes place for further 2 h gently agitation at room temperature. Plates were then measured in an EnVision reader (Perkin Elmer) with the AlphaScreen program. Each data point (compound dilution) was measured as triplicate.
The IC50 values were determined by means of a 4-parameter fit using the company's own software.

T1 sequence (Q9BUB5 1-424 isoform Q9BUB5-2 T344D): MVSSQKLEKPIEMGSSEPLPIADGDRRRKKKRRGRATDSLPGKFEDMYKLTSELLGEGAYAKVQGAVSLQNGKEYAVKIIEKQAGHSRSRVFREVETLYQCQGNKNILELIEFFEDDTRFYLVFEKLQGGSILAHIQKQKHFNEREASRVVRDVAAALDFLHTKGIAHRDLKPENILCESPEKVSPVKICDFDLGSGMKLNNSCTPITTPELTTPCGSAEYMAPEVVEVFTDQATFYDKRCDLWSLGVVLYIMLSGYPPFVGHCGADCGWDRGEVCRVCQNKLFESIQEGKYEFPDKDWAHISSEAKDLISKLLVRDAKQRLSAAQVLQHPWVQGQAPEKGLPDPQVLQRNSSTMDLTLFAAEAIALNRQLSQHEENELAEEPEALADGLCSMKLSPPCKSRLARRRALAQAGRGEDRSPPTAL

Row | Structure (SMILES) | IC50 (human full-length MKNK1 [1]) [nM] | IC50 (human full-length MKNK1 [2]) [nM] | IC50 [3] [nM]
1 | CCOC(=O)C1CCc2c(sc3ncnc(Nc4ccc5[nH]ncc5c4)c23)C1 (stereo not drawn) [Example 1, Ethyl 4-(1H-indazol-5-ylamino)-5,6,7,8-tetrahydro[1]benzothieno[2,3-d]pyrimidine-7-carboxylate] | 5 | 16 | 
2 | O=C(O)C1CCc2c(sc3ncnc(Nc4ccc5[nH]ncc5c4)c23)C1 (stereo not drawn) [Example 2, 4-(1H-Indazol-5-ylamino)-5,6,7,8-tetrahydro[1]benzothieno[2,3-d]pyrimidine-7-carboxylic acid] | 8 | 26 | 
3 | CS(=O)(=O)CCCNC(=O)C1CCc2c(sc3ncnc(Nc4ccc5[nH]ncc5c4)c23)C1 (stereo not drawn) [Example 4, 4-(1H-Indazol-5-ylamino)-N-[3-(methylsulfonyl)propyl]-5,6,7,8-tetrahydro[1]benzothieno[2,3-d]pyrimidine-7-carboxamide] | 8 | 9 | 
4 | CCOC(=O)C1CCc2c(sc3ncnc(Nc4cc5cn[nH]c5cc4OC)c23)C1 (stereo not drawn) [Example 56, Ethyl 4-[(6-methoxy-1H-indazol-5-yl)amino]-5,6,7,8-tetrahydro[1]benzothieno[2,3-d]pyrimidine-7-carboxylate] | 2 | 2 | 165
